The values that follow come from the SangsterLogP compilation.

The series in a line: method code SF-HPLC, from DOI: 10.2478/s11532-013-0336-y.
Regarding `CCCCCCCC(O)c1cc(OC)c(OC)c(OC)c1` (stereo not given), the logP (usually the decadic logarithm of the partition coefficient of the neutral form, usually between octanol and water) worked out at 3.95. The compound `CCC/C=C\c1c(OC)cc(OC)cc1OC` had a logP of 3.97.

Compound `CCCC/C=C\c1c(OC)cc(OC)cc1OC` displayed a log partition coefficient (logP) of 4.57. With `CCC(O)c1cc(OC)c(OC)c(OC)c1` (stereo not given) the figure was 1.45; with `CCCCCCC(O)c1cc(OC)c(OC)c(OC)c1` (stereo not given), 3.59. With `C=CCOc1c(OC)cc(C=CCC)cc1OC`, the logP was determined as 3.81. `CCCC=Cc1cc(OC)c(OC)c(OC)c1` yielded a logP of 3.67. The compound `C/C=C/c1cc(OC)c(OC)cc1OC` yielded a logP of 2.44. On to `CCC=Cc1cc(OC)c(OC(=O)c2cccnc2)c(OC)c1`, for which the logP worked out at 3.5. As to `CCCCC=Cc1cc(OC)c(OC)c(OC)c1`, the logP came to 4.1. In turn, `CCCC(O)c1cc(OC)c(OC)c(OC)c1` (stereo not given) registered a log partition coefficient (logP) of 1.94. With `CCCCCC(O)c1cc(OC)c(OC)c(OC)c1` (stereo not given) the figure was 2.9; with `CCCCC(O)c1cc(OC)c(OC)c(OC)c1` (stereo not given), 2.49; with `C/C=C/c1c(OC)cc(OC)cc1OC`, 2.61. In turn, `CC=Cc1cc(OC)c(OC(=O)c2cccnc2)c(OC)c1` showed a logP of 2.94. In turn, `C/C=C/c1ccc(OC)c(OC)c1OC` showed a logP of 3.09. The compound `CC/C=C\c1cc(OC)c(OC)c(OC)c1` showed a logP of 3.06.

`CCCCCC=Cc1cc(OC)c(OC)c(OC)c1` returned a logP of 4.5. `C=CCOc1c(OC)cc(C=CC)cc1OC` returned a log partition coefficient (logP) of 3.22.

On to `C=CCOc1c(OC)cc(C=CCCC)cc1OC`, for which the lipophilicity (logP) is 4.28. With `CC/C=C\c1c(OC)cc(OC)cc1OC` the figure was 3.56; with `CCCC=Cc1cc(OC)c(OC(=O)c2cccnc2)c(OC)c1`, 3.96. For `C/C=C/c1cc(OC)c(OC)c(OC)c1`, the logP came out at 2.27.

The compound `C/C=C/c1c(OC)ccc(OC)c1OC` gave a logP of 2.73.

The compound `C/C=C/c1cc(OC)cc(OC)c1OC` came in with a logP of 2.93.
